Laboratory results as given in patent US12144814B2, “Compositions containing paraxanthine and beta-hydroxybutyrate or precursor for increasing neurological and physiological performance” (priority 2023, dated 2024).

Tests used:
healthy young adults [1] = test: Go/No Go Attention and Inhibitory Control Test; format: in vivo; details: 200 mg paraxanthine; 5 g BHB; 200 mg paraxanthine and 5 g BHB; baseline and 1-6 hours after supplementation; FIG. 5
From the text: Attention and inhibitory control can be measured using a Go/No Go Test, which is used to measure a participant's capacity for sustained attention and response control. The Go/No Go Test is routinely used in the field, and will be familiar to those of skill in the art. In the Go/No Go Test, participants watch a 2×2 array of squares, and then there is a successive presentation of letters (e.g., either P or R) and the participant responds to a target letter by pressing the corresponding button on a keyboard. The single letter (P or R) is presented in one of the 4 squares for 500 milliseconds, with 1500 milliseconds between subsequent stimuli. For the P-Go condition, participants are asked to press the P key in response to the letter P, and abstain from responding to the letter R. For the R-reversal condition, the participants are asked to respond to the letter R, and abstain when seeing the letter P. Mean response time, as well as percentage of correct answers are recorded. When running each such tests, subjects are given either paraxanthine+BHB, paraxanthine alone, BHB alone, or a placebo. The dosage amounts are 200 mg paraxanthine and 5 g of BHB, 200 mg of paraxanthine alone, 5 g of BHB alone, or a placebo. The testing is conducted under double blind, placebo controlled conditions. […]

healthy young adults [2] = test: Berg-Washington Card Sorting Task Test; format: in vivo; details: 200 mg paraxanthine, 5 g BHB, 200 mg paraxanthine and 5 g BHB
From the text: (§1) The Berg-Washington Card Sorting Task (BCST) test is a test routinely used in the field to evaluate cognitive flexibility. The BCST test focuses on basic cognitive flexibility or set-shifting between old vs. new rule changes. The test involves reasoning, learning, executive control, and attention shifting. It is particularly sensitive to the subject's inability to shift set. Cards are shown with different colors (e.g., red, green, yellow, blue), different designs (e.g., circle, triangle, star, plus sign) and different numbers of symbols (e.g., 1-4) on the computer screen. Participants are asked to sort the cards by matching colors and/or designs and/or number of symbols, where the instruction for how to sort the cards can change, at different times during the test. Number of correct responses and number of errors (particular perservative errors, where the participant incorrectly continues sorting the cards under an old instruction, after a new instruction is given) are recorded. When running each such tests, subjects are given either paraxanthine+BHB, paraxanthine alone, BHB alone, or a placebo. The dosage amounts are 200 mg paraxanthine and 5 g of BHB, 200 mg of paraxanthine alone, 5 g of BHB alone, or a placebo. The testing is conducted under double blind, placebo controlled conditions. […]

adenosine A2a receptors = adenosine A2a receptors (Homo sapiens, UniProt P29274); details: compared with caffeine; cited from earlier work
Chain of adenosine A2a receptors (P29274 whole entry): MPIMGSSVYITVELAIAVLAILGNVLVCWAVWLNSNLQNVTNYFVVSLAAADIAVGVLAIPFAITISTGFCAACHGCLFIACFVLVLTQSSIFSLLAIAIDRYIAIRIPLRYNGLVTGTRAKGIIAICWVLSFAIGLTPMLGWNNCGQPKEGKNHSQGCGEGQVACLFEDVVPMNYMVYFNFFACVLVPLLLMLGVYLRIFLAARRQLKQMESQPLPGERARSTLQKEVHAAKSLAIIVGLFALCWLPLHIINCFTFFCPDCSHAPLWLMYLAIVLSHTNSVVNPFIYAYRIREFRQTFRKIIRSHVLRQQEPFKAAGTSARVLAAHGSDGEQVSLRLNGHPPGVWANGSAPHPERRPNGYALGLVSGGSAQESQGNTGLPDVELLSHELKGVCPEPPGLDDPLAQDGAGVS

[3] = cited from earlier work
[4] = in vivo; cited from earlier work
[5] = Age-related cognitive decline study; format: in vivo
[6] = Clinical Resting Energy Expenditure study; format: in vivo; details: paraxanthine 100 mg or 300 mg; BHB 5 g; paraxanthine 100 mg or 300 mg with BHB 5 g; 180-day period
Protocol: FIGS. 16A-16B show expected results of a clinical Resting Energy Expenditure study, where participants are supplemented with paraxanthine alone (100 mg or 300 mg), BHB alone (5 g), or paraxanthine (100 mg or 300 mg) in combination with BHB (5 g) over a 180-day period. […] Because of the presence of the BHB ketone body component, such increased metabolic rate is also more likely to occur within the context of ketogenic state, where fat is principally used as the caloric energy source for the increased resting metabolic rate.

[7] = 28-day sports nutrition clinical study; format: in vivo; details: paraxanthine 100 mg, paraxanthine 100 mg with BHB 5 g, 28 days, exercise 5 days per week
From the text: Participants exercise 5 days per week, of the 4-week study. […] Increases in nitric oxide levels, as well as improved blood lipids scores (e.g., TG, TC, LDL, HDL) are also observed.

[8] = system: healthy trained male runners; test: Berg-Washington Card Sorting Task Test before and after 10 km treadmill run; format: in vivo; details: 200 mg paraxanthine, 200 mg caffeine, 5 g BHB, and combinations, after 10 km treadmill run
From the text: as §1, with “When running each such tests, subjects are given either paraxanthine+BHB, paraxanthine alone, BHB alone, or a placebo. The dosage amounts are 200 mg paraxanthine and 5 g of BHB, 200 mg of paraxanthine alone, 5 g of BHB alone, or a placebo.” left out, “conditions. The subjects include 12 healthy trained male runners, aged 26±5 years. Baseline cognition tests are administered (PRE), the given supplement is ingested, and after 60 minutes of rest, a pre-race cognition test (PRE-EX) is administered.” for “conditions.”

Cn1c(=O)[nH]c2ncn(C)c2c1=O [paraxanthine, 1,7-dimethylxanthine]
Go/No Go Test average response time (healthy young adults [1]): faster response times | Berg-Washington Card Sorting Task Test number of correct responses (healthy young adults [2]; FIG. 7): significant increase in the number of correct responses | Berg-Washington Card Sorting Task Test number of errors (healthy young adults [2]; FIG. 8): reduction in the number of errors | binding potency for adenosine A2a receptors (adenosine A2a receptors): higher binding potencies | half-life ([3]; elimination half-life, FIG. 3): 3.1 h | Total plasma clearance ([3]; in vivo): 2.20 mL/min/kg | locomotor activation effects [4]: stronger locomotor activation effects than caffeine | Acetylcholine ([5]; PX 25 mg): 61.04 U/mL | BDNF ([5]; PX 25 mg): 828.05 pg/mL | Catalase ([5]; PX 25 mg): 30.24 U/mL | Dopamine ([5]; PX 25 mg): 493.65 ng/L | Escape Latency ([5]; PX 25 mg): 49.9 s | Glutathione ([5]; PX 25 mg): 24.04 µg/mL | Acetylcholine ([5]; PX 100 mg): 69.27 U/mL | BDNF ([5]; PX 100 mg): 939.15 pg/mL | Catalase ([5]; PX 100 mg): 38.91 U/mL | Dopamine ([5]; PX 100 mg): 596.32 ng/L | Escape Latency ([5]; PX 100 mg): 21.31 s | Glutathione ([5]; PX 100 mg): 34.41 µg/mL | resting energy expenditure [6]: some increase in resting energy expenditure | endurance (treadmill distance) ([7]; FIG. 14A): some improvement | muscle mass ([7]; FIG. 14B): some improvement | grip strength ([7]; FIG. 14C): some improvement | Berg-Washington Card Sorting Task Test correct responses, POST relative to PRE ([8]; FIG. 12A): some improvement in correct responses | Berg-Washington Card Sorting Task Test errors, POST relative to PRE ([8]; FIGS. 12B-12D): reduced errors
